Measured values reported in PMC5829162, “Rational Design, Synthesis and Biological Evaluation of Pyrimidine-4,6-diamine derivatives as Type-II inhibitors of FLT3 Selective Against c-KIT” (Scientific Reports, 2018).
Several values for one entry are separate records, joined by “and”; a condition that tells them apart may be missing. Equal entries are not always repeated.

Legend:
FLT3 kinase = biological target: T1, FLT3 kinase (Homo sapiens, UniProt P36888); assay: Biochemical enzyme inhibition assay (microfluidics, Caliper EZ Reader II), FLT3; details: for IC50: in vitro kinase assay, 60 min pre-incubation, ATP 190 µM, three independent experiments, read-out: FLT3 IC50 (nM) ± SD; for LE: ligand efficiency for FLT3 inhibition
T1 construct: purchased Invitrogen
T1 sequence (P36888 27-993): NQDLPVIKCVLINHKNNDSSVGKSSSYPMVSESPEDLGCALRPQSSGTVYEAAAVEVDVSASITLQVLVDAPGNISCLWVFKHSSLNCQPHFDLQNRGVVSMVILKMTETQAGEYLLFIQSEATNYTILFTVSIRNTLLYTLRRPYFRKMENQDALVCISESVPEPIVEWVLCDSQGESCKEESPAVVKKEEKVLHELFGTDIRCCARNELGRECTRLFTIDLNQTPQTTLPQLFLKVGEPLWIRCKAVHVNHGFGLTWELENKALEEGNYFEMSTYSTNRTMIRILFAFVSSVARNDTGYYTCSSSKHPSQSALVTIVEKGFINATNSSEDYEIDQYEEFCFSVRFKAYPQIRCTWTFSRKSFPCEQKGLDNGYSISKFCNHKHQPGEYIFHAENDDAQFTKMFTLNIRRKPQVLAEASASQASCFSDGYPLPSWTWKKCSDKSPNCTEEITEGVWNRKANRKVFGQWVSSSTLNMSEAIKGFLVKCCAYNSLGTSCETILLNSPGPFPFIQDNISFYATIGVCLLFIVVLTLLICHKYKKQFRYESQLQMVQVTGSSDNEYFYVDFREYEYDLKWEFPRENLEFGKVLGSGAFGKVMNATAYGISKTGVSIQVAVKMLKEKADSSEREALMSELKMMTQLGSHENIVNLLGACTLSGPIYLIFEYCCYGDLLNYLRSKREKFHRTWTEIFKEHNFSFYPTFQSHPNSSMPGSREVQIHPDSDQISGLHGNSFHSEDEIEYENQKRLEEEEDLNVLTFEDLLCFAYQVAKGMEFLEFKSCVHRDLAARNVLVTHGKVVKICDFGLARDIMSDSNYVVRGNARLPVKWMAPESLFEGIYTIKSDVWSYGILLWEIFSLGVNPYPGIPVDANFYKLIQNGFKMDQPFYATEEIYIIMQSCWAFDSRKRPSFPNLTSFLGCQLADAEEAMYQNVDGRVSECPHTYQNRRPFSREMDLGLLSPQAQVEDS
Protocol: Kinase activity was measured in a microfluidics assay that monitors the separation of a phosphorylated product from substrate[31],[32]. […] After, 1 μL was transferred into a 384-well polypropylene assay plate (Greiner, Frickenhausen, Germany). The FLT3 enzyme (Invitrogen™, Grand Island, USA) was diluted in kinase buffer to a concentration of 2 nM and 5 µL of the enzyme mixture was transferred to the assay plate. The inhibitors/FLT3 enzyme were incubated for 60 minutes with minor shaking. […] For positive control, no inhibitor was added. For negative control, no enzyme was added. For running control, quizartinib was utilized. The plate was run until 10–20% conversion based on the positive control wells. The following separation conditions were utilized: upstream voltage −500V; downstream voltage, −1900V; chip pressure −0.8. Percent inhibition was measured for each well comparing starting peptide to phosphorylated product peaks relative to the baseline. Dose response curves, spanning the IC50 dose, were generated in GraphPad Prisim 6 and fit to an exponential one-phase decay line and IC50 values were obtained from the half-life value of the curve. IC50 values were generated in duplicate and error was calculated from the standard deviation between values.
S10. Biochemical Inhibition Assay:1,2 Kinase activity was measured in a microfluidics assay that monitors the separation of a phosphorylated product from substrate. The assay was run using a 12-sipper chip on a Caliper EZ Reader II (PerkinElmer®, Walthman, USA) with separation […]
Walthman, USA]). In 96-well polypropylene plates (Greiner, Frickenhausen, Germany) […]
After, 1 μL was transferred into a 384-well polypropylene assay plate (Greiner, Frickenhausen, Germany). The FLT3 enzyme (Invitrogen™, Grand Island, USA) was diluted in kinase buffer to a concentration of 2 nM and 5 µL of the enzyme mixture was transferred to the assay plate. The inhibitors/FLT3 enzyme were incubated for 60 minutes with minor shaking. A substrate mix was prepared containing ATP (Ambresco®, Solon, USA) and […]
USA) dissolved in kinase buffer, and 5 µL of the substrate mix was added to the assay plate.
For positive control, no inhibitor was added. For negative control, no enzyme was added. For running control, quizartinib was utilized. The plate was run until 10-20% conversion based on the positive control wells. The following separation conditions were utilized: upstream voltage -500V; downstream voltage, -1900V; chip pressure - 0.8. Percent inhibition was measured for each well comparing starting peptide to phosphorylated product peaks relative to the baseline. Dose response curves, spanning the IC50 dose, were generated in GraphPad Prisim 6 and fit to an exponential one-phase decay line and IC50 values were obtained from the half-life value of the curve. IC50 values were generated in duplicate and error was calculated from the standard deviation between values. […]

Molecule | melting point | IC50 (FLT3 kinase) | LE (FLT3 kinase) | fold less active than 13a on FLT3 (FLT3 kinase; enzymatic FLT3 IC50 compared with 13a)
CS(=O)(=O)c1ccc(Nc2cc(Oc3ccc(CC(=O)Nc4cccc(F)c4)cc3)ncn2)cc1 [13aa, 2-(4-(6-(4-(Methylsulfonyl)phenylamino)pyrimidin-4-yloxy)phenyl)-N-(3-fluorophenyl)acetamide] | 228 to 230 °C | 7878 ± 29 nM | 0.20 | –
O=C(Cc1ccc(Nc2cc(NCCCN3CCCC3)ncn2)cc1)Nc1cccc(C(F)(F)F)c1 [13ab, 2-(4-(6-(3-(Pyrrolidin-1-yl)propylamino)pyrimidin-4-ylamino)phenyl)-N-(3-(trifluoromethyl)phenyl)acetamide] | – | 9170 ± 236 nM | 0.19 | –
CS(=O)(=O)c1ccc(Nc2cc(Nc3ccc(CC(=O)Nc4cccc(F)c4)cc3)ncn2)cc1 [13ac, 2-(4-(6-(4-(Methylsulfonyl)phenylamino)pyrimidin-4-ylamino)phenyl)-N-(3-fluorophenyl)acetamide] | – | 11710 ± 106 nM | 0.19 | –
CNc1cc(Oc2ccc(CC(=O)Nc3ccc(F)cc3)cc2)ncn1 [13ad, 2-(4-(6-(Methylamino)pyrimidin-4-yloxy)phenyl)-N-(4-fluorophenyl)acetamide] | 124 to 126 °C | 12800 ± 834 nM | 0.26 | –
CS(=O)(=O)c1ccc(Nc2cc(Nc3ccc(CC(=O)NC4CC4)cc3)ncn2)cc1 [13ae, 2-(4-(6-(4-(Methylsulfonyl)phenylamino)pyrimidin-4-ylamino)phenyl)-N-cyclopropylacetamide] | 110 to 112 °C | 5550 ± 169 nM | 0.23 | –
O=C(Cc1ccc(Nc2cc(Nc3cccc(C(F)(F)F)c3)ncn2)cc1)NC1CC1 [13af, 2-(4-(6-(3-(Trifluoromethyl)phenylamino)pyrimidin-4-ylamino)phenyl)-N-cyclopropylacetamide] | – | 8060 ± 274 nM | 0.23 | –
CN1CCN(c2cc(Nc3ccc(CC(=O)NC4CC4)cc3)ncn2)CC1 [13ah, 2-(4-(6-(4-Methylpiperazin-1-yl)pyrimidin-4-ylamino)phenyl)-N-cyclopropyl acetamide] | – | 13560 ± 102 nM | 0.25 | –
O=C(Cc1ccc(Nc2cc(N3CCOCC3)ncn2)cc1)NC1CC1 [13ai, 2-(4-(6-Morpholinopyrimidin-4-ylamino)phenyl)-N-cyclopropylacetamide] | 110 to 112 °C | 15100 ± 168 nM | 0.25 | –
CCCCNc1cc(Oc2ccc(CC(=O)Nc3nc(C(C)(C)C)cs3)cc2)ncn1 [13aj, 2-(4-(6-(Butylamino)pyrimidin-4-yloxy)phenyl)-N-(4-tert-butylthiazol-2-yl)acetamide] | 102 to 104 °C | 7580 ± 132 nM | 0.23 | –
COc1ccc(CNC(=O)Cc2ccc(Oc3cc(NC4CCN(Cc5ccccc5)CC4)ncn3)cc2)c(OC)c1 [13ak, N-(2,4-Dimethoxybenzyl)-2-(4-(6-(1-benzylpiperidin-4-ylamino)pyrimidin-4-yloxy)phenyl)acetamide] | 102 to 104 °C | 13600 ± 494 nM | 0.16 | –
Cn1nc(C(C)(C)C)cc1NC(=O)Cc1ccc(Nc2cc(NCCCN3CCCCC3)ncn2)cc1 [13c, 2-(4-(6-(3-(Piperidin-1-yl)propylamino)pyrimidin-4-ylamino)phenyl)-N-(3-tert-butyl-1-methyl-1H-pyrazol-5-yl)acetamide] | – | 129.3 ± 0.9 nM | 0.26 | –
Cn1nc(C(C)(C)C)cc1NC(=O)Cc1ccc(Oc2cc(Nc3ccc(S(C)(=O)=O)cc3)ncn2)cc1 [13e, 2-(4-(6-(4-(Methylsulfonyl)phenylamino)pyrimidin-4-yloxy)phenyl)-N-(3-tert-butyl-1-methyl-1H-pyrazol-5-yl)acetamide] | – | 268 ± 25 nM | 0.24 | –
Cn1nc(C(C)(C)C)cc1NC(=O)Cc1ccc(Oc2cc(Nc3cccc(C(F)(F)F)c3)ncn2)cc1 [13f, 2-(4-(6-(3-(Trifluoromethyl)phenylamino)pyrimidin-4-yloxy)phenyl)-N-(3-tert-butyl-1-methyl-1H-pyrazol-5-yl)acetamide] | 140 to 142 °C | 961 ± 33.7 nM | 0.22 | –
CC(C)(C)c1cc(NC(=O)Cc2ccc(Nc3cc(Nc4ccc(S(C)(=O)=O)cc4)ncn3)cc2)n(-c2ccc(F)cc2)n1 [13g, 2-(4-(6-(4-(Methylsulfonyl)phenylamino)pyrimidin-4-ylamino)phenyl)-N-(3-tert-butyl-1-(4-fluorophenyl)-1H-pyrazol-5-yl)acetamide] | 168 to 170 °C | 3230 ± 556 nM | 0.17 | –
Cc1ccc(-n2nc(C(C)(C)C)cc2NC(=O)Cc2ccc(Nc3cc(Nc4ccc(S(C)(=O)=O)cc4)ncn3)cc2)cc1 [13h, 2-(4-(6-(4-(Methylsulfonyl)phenylamino)pyrimidin-4-ylamino)phenyl)-N-(3-tert-butyl-1-p-tolyl-1H-pyrazol-5-yl)acetamide] | 155 to 157 °C | 4840 ± 170 nM | 0.16 | –
Cn1nc(C(C)(C)C)cc1NC(=O)Cc1ccc(Nc2cc(N3CCOCC3)ncn2)cc1 [13i, 2-(4-(6-Morpholinopyrimidin-4-ylamino)phenyl)-N-(3-tert-butyl-1-methyl-1H-pyrazol-5-yl)acetamide] | – | 428 ± 99 nM | 0.27 | –
CN1CCN(c2cc(Nc3ccc(CC(=O)Nc4cc(C(C)(C)C)nn4-c4ccc(Br)cc4)cc3)ncn2)CC1 [13j, 2-(4-(6-(4-Methylpiperazin-1-yl)pyrimidin-4-ylamino)phenyl)-N-(3-tert-butyl-1-(4-bromophenyl)-1H-pyrazol-5-yl)acetamide] | 110 to 112 °C | 6020 ± 122 nM | 0.18 | –
CC(C)(C)c1cc(NC(=O)Cc2ccc(Oc3cc(Nc4cccc(C(F)(F)F)c4)ncn3)cc2)no1 [13l, 2-(4-(6-(3-(Trifluoromethyl)phenylamino)pyrimidin-4-yloxy)phenyl)-N-(5-tert-butylisoxazol-3-yl)acetamide] | 120 to 122 °C | 567 nM and 568 nM | 0.23 | –
O=C(Cc1ccc(Nc2cc(NCCCN3CCCCC3)ncn2)cc1)Nc1ccc(OC(F)(F)F)cc1 [13y, 2-(4-(6-(3-(Piperidin-1-yl)propylamino)pyrimidin-4-ylamino)phenyl)-N-(4-(trifluoromethoxy)phenyl)acetamide] | – | 6460 ± 251 nM | 0.19 | –
Cn1nc(C(C)(C)C)cc1NC(=O)Cc1ccc(Nc2cccc(Nc3ccc(S(C)(=O)=O)cc3)n2)cc1 [compound 18, 2-(4-(6-(4-(Methylsulfonyl)phenylamino)pyridin-2-ylamino)phenyl)-N-(3-tert-butyl-1-methyl-1H-pyrazol-5-yl)acetamide] | – | 5720 nM | – | > 100 fold
N-(4-Fluorobenzyl)-2-(4-(6-(3-(pyrrolidin-1-yl)propylamino)pyrimidin-4-yloxy)phenyl)acetamide [13w] | – | 4560 ± 330 nM | 0.21 | –
